Target: T1, Prostaglandin G/H synthase 1 (Ovis aries) (UniProt P05979)
T1 sequence (whole entry): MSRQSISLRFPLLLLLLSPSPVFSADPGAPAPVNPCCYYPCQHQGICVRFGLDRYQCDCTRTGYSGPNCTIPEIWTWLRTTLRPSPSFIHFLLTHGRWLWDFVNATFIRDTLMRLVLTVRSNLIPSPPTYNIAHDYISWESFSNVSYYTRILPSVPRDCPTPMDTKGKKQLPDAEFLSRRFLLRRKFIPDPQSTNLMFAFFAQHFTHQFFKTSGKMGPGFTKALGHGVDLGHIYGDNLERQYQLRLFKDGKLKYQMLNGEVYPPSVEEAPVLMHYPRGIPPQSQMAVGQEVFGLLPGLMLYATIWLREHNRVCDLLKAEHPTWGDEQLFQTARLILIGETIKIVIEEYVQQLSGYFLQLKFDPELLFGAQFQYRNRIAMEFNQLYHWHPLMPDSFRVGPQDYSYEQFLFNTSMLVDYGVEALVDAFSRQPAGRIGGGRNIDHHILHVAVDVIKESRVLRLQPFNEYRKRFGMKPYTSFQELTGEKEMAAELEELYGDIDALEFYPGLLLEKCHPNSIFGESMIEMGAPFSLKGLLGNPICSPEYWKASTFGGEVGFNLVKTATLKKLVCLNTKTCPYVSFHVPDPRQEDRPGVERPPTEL
Settings: 1 uM
Description: Binding affinity to ovine COX1 at 1 uM to 25 uM

Row | Structure (SMILES) | Kinact [µM]
1 | CC[C@@H](CO)NC(=O)Cc1c(C)n(C(=O)c2ccc(Cl)cc2)c2ccc(OC)cc12 | 4
2 | CC[C@H](CO)NC(=O)Cc1c(C)n(C(=O)c2ccc(Cl)cc2)c2ccc(OC)cc12 | 2.3

Reference: ChEMBL document CHEMBL1147054, “Structural basis of enantioselective inhibition of cyclooxygenase-1 by S-alpha-substituted indomethacin ethanolamides” (J Biol Chem, 2007)
